# Paper PMC8781192, “An In Silico and an In Vitro Inhibition Analysis of Glycogen Phosphorylase by Flavonoids, Styrylchromones, and Pyrazoles” (Nutrients, 2022)
# Where two headings read alike, the source gives them in different places.
# How the values were obtained:
# rabbit mGPa [1] = biological target: T1, rabbit mGPa (Oryctolagus cuniculus, UniProt P00489); assay: In vitro glycogen phosphorylase inhibition assay (direction of glycogen synthesis, colorimetric phosphate); format: biochemical; details: for inhibition at 50 µM: at 50 μM (highest concentration tested)
# T1 construct: purchased Creative Enzymes
# T1 sequence (P00489 2-843 limits assumed): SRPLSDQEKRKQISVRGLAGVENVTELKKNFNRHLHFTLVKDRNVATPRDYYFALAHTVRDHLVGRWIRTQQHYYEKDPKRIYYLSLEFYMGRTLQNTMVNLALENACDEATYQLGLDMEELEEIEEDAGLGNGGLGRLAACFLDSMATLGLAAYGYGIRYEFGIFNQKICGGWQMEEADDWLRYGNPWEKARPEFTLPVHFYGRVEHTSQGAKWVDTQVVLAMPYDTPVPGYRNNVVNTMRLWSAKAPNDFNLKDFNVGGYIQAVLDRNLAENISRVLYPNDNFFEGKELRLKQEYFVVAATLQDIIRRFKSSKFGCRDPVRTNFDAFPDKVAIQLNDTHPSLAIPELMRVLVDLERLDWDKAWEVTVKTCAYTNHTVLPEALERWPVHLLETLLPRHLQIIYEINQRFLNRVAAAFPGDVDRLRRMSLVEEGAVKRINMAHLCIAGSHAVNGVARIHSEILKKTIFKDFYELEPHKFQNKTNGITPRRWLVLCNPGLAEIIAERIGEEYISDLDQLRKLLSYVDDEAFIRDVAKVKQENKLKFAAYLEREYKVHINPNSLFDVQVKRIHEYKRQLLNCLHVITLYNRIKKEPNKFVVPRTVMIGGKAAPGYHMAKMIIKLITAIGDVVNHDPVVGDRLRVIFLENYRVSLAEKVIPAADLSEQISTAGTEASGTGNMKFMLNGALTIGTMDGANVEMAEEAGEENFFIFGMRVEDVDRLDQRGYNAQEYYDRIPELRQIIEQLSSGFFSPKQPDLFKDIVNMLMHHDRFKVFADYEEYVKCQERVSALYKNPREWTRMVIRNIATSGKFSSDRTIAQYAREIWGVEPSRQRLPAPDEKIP
# Description: The GP activity was measured using a previously optimized and validated method. In each assay, GP activity was measured by the direction of glycogen synthesis, which involved monitoring the colorimetric determination of inorganic phosphate deriving from glucose 1-phosphate. […] The enzymatic reaction was then started with the addition of a 50 mM HEPES buffer solution, with a pH of 7.2, containing 100 mM KCl, 2.5 mM MgCl2, 0.25 mM glucose 1-phosphate, and 0.25 mg/mL glycogen incubated for 30 min at 37 °C. After this incubation time, the reagent for colorimetric phosphate quantitation, BIOMOL® Green, was added to the reaction mixture. The reaction was monitored in a microplate reader (Synergy HT, BioTek Instruments, Winooski, VT, USA) at 620 nm.
# rabbit mGPa [2] = biological target: T1, rabbit mGPa; assay: In vitro effect of glucose on inhibitor potency (GPa inhibition with 0, 5, 10 mM glucose); format: biochemical; details: for IC50: mean ± SEM; for inhibition at 40 µM: at 40 μM (highest concentration tested), read-out: GPa inhibitory activity (%)
# Description: The method was performed as described in Section 2.2, with slight modifications. […] The enzymatic reaction was then started with the addition of a 50 mM HEPES buffer solution with a pH of 7.2 containing 100 mM KCl, 2.5 mM MgCl2, 0.25 mM glucose 1-phosphate, and 0.25 mg/mL glycogen. This buffer was used without glucose, or it was enriched with 5 and 10 mM of glucose and was incubated for 30 min at 37 °C in the reaction mixture. After this incubation time, BIOMOL® Green was added, and the reaction was monitored in a microplate reader (Synergy HT, BioTek Instruments, Winooski, VT, USA) at 620 nm.
# rabbit mGPa [3] = biological target: T1, rabbit mGPa; design: method as in PMID 16317787; details: direction of glycogen breakdown; cited from earlier work
# GPb = test system: GPb; design: method as in PMID 16317787; details: direction of glycogen breakdown; cited from earlier work
# [4] = mean ± SEM, read-out: GPa inhibitory activity (%)
# [5] = no glucose, mean ± SEM, read-out: GPa IC50 value
# [6] = Table S2 summary of activities, read-out: IC50
# [7] = 0 mM of glucose, read-out: GPa IC50 value
structure (smiles),measurement,setting,value
COc1ccc(/C=C/c2c[nH]nc2-c2ccccc2O)cc1 [Compound 3],inhibition at 50 µM,rabbit mGPa [1]; [4],< 30%
Oc1ccccc1-c1cc(/C=C/c2ccccc2)[nH]n1 [Compound 10],inhibition at 50 µM,rabbit mGPa [1]; [4],< 30%
O=c1cc(-c2ccc(O)cc2)oc2cc(O)ccc12 [Compound 37],inhibition at 50 µM,rabbit mGPa [1]; [4],< 30%
"CN(C)C(=O)[C@H](O)[C@H](Cc1ccccc1)NC(=O)c1cc2cc(Cl)ccc2[nH]1 [CP-91149, 5-chloro-N-[(1S,2R)-3-(dimethylamino)-2-hydroxy-3-oxo-1-(phenylmethyl)propyl]-1H-indole-2-carboxamide, reference compound]",IC50,rabbit mGPa [1]; [5],0.58 ± 0.09 µM
same,IC50,"rabbit mGPa [2]; GPa IC50 value, 0 mM of glucose",0.58 ± 0.09 µM
same,IC50,"rabbit mGPa [2]; GPa IC50 value, 5 mM of glucose",0.39 ± 0.05 µM
same,IC50,"rabbit mGPa [2]; GPa IC50 value, 10 mM of glucose",0.22 ± 0.04 µM
COc1ccc(/C=C/c2cc(-c3ccccc3OS(=O)(=O)c3ccc(C)cc3)nn2S(=O)(=O)c2ccc(C)cc2)cc1 [Compound 15],inhibition at 50 µM,rabbit mGPa [1]; [4],< 30%
O=c1cc(-c2ccc(O)c(O)c2)oc2ccccc12 [Compound 39],IC50,rabbit mGPa [1]; [6],> 50 µM
same,inhibition at 50 µM,rabbit mGPa [1]; [4],< 30%
O=[N+]([O-])c1cccc(/C=C\c2c[nH]nc2-c2ccccc2O)c1 [Compound 8],inhibition at 50 µM,rabbit mGPa [1]; [4],< 30%
O=c1cc(/C=C/c2ccccc2)oc2cc(O)ccc12 [Compound 16],inhibition at 50 µM,rabbit mGPa [1]; [4],< 30%
O=c1cc(/C=C/c2ccc(O)c(O)c2)oc2cccc(O)c12 [Compound 20],inhibition at 50 µM,rabbit mGPa [1]; [4],< 30%
"O=c1cc(-c2ccc(O)c(O)c2)oc2cc(O)cc(O)c12 [Compound 43, Luteolin]",IC50,rabbit mGPa [1]; [6],> 50 µM
same,inhibition at 50 µM,rabbit mGPa [1]; [4],< 30%
O=c1cc(-c2ccc(O)c(O)c2)oc2cccc(O)c12 [Compound 41],IC50,rabbit mGPa [1]; [6],> 50 µM
same,inhibition at 50 µM,rabbit mGPa [1]; [4],< 30%
"O=c1cc(-c2ccccc2)oc2c(O)c(O)cc(O)c12 [Compound 46, Norwogonin]",IC50,rabbit mGPa [1]; [5],13.2 ± 1.4 µM
same,IC50,rabbit mGPa [2]; [7],13.2 ± 1.4 µM
same,IC50,"rabbit mGPa [2]; 5 mM of glucose, read-out: GPa IC50 value",8.9 ± 1 µM
same,IC50,"rabbit mGPa [2]; 10 mM of glucose, read-out: GPa IC50 value",3.7 ± 0.5 µM
COc1ccc(/C=C/c2cc(-c3ccccc3O)nn2-c2ccccc2)cc1 [Compound 12],inhibition at 50 µM,rabbit mGPa [1]; [4],< 30%
"O=c1cc(-c2ccc(O)cc2)oc2cc(O)c(O)c(O)c12 [Compound 48, Scutellarein]",IC50,rabbit mGPa [1]; [6],> 50 µM
same,inhibition at 50 µM,rabbit mGPa [1]; [4],< 30%
"O=c1c(O)c(-c2ccc(O)c(O)c2)oc2cc(O)c(O)c(O)c12 [Compound 50, Quercetagetin]",IC50,rabbit mGPa [1]; [6],> 50 µM
same,inhibition at 50 µM,rabbit mGPa [1]; [4],< 30%
"O=c1cc(-c2ccccc2)oc2cc(O)c(O)c(O)c12 [Compound 47, Baicalein]",IC50,rabbit mGPa [1]; [5],23.5 ± 2.9 µM
same,IC50,rabbit mGPa [3],11.2 ± 1.5 µM
same,IC50,GPb,10.2 ± 1.2 µM
COc1ccc2c(=O)cc(/C=C/c3ccc(OC)c(OC)c3)oc2c1 [Compound 28],inhibition at 50 µM,rabbit mGPa [1]; [4],< 30%
COc1cc(O)c2c(=O)cc(/C=C/C=C/c3ccc(O)c(O)c3)oc2c1 [Compound 33],IC50,rabbit mGPa [1]; [5],15.9 ± 1.1 µM
same,IC50,rabbit mGPa [2]; [7],15.9 ± 1.1 µM
same,inhibition at 40 µM,rabbit mGPa [2]; 5 mM of glucose,53.9 ± 2.5%
same,inhibition at 40 µM,rabbit mGPa [2]; 10 mM of glucose,< 30%
O=c1c(O)c(/C=C/c2ccc(O)c(O)c2)oc2c(O)c(O)ccc12 [Compound 24],IC50,rabbit mGPa [1]; [6],> 25 µM
same,inhibition at 25 µM,"rabbit mGPa [1]; at 25 μM (highest concentration tested), mean ± SEM, read-out: GPa inhibitory activity (%)",33.7 ± 6.5%
COc1ccc2c(=O)cc(/C=C/C=C/c3ccc(O)c(O)c3)oc2c1 [Compound 34],inhibition at 50 µM,rabbit mGPa [1]; [4],51.9 ± 1.8%
"COc1cc2oc(-c3ccccc3)cc(=O)c2c(O)c1O [Compound 51, Baicalein-7-methylether]",IC50,rabbit mGPa [1]; [5],22.6 ± 0.4 µM
COc1ccc(/C=C/c2cc(-c3ccccc3O)nn2S(=O)(=O)c2ccc(C)cc2)cc1 [Compound 13],inhibition at 50 µM,rabbit mGPa [1]; [4],< 30%
Oc1ccccc1-c1n[nH]cc1/C=C/c1ccccc1C(F)(F)F [Compound 4],inhibition at 50 µM,rabbit mGPa [1]; [4],< 30%
Cc1ccc(S(=O)(=O)Oc2ccccc2-c2cc(/C=C/c3ccccc3)n(S(=O)(=O)c3ccc(C)cc3)n2)cc1 [Compound 14],inhibition at 50 µM,rabbit mGPa [1]; [4],< 30%
O=c1cc(/C=C/C=C/c2ccc(O)c(O)c2)oc2ccccc12 [Compound 30],inhibition at 50 µM,rabbit mGPa [1]; [4],< 30%
COc1ccc2c(=O)cc(/C=C/C=C/c3ccc(OC)c(OC)c3)oc2c1 [Compound 35],inhibition at 50 µM,rabbit mGPa [1]; [4],35.8 ± 4.6%
